Reference: patent US12234463B2, “Engineered microorganisms with G3P → 3PG enzyme and/or fructose-1,6-bisphosphatase including those having synthetic or enhanced methylotrophy” (Genomatica, Inc., priority 2018, dated 2025)
Read-outs that look alike come from different tables or passages of the source.

Legend:
[1] = test system: E. coli fructose-6-phosphate aldolase (F6P aldolase, fsa) variant A129S; conditions: cited from earlier work
[2] = test system: E. coli transketolase A (TktA); conditions: ref. [3], cited from earlier work
[3] = test system: dihydroxyacetone synthase from Mycobacter sp. strain JC1 DSM 3803; conditions: cited from earlier work
[4] = test system: E. coli ribose 5-phosphate isomerase A (RpiA); conditions: read-out: Michaelis constant for ribose 5-phosphate; cited from earlier work
[5] = test system: E. coli ribose 5-phosphate isomerase B (RpiB); conditions: read-out: Michaelis constant for ribose 5-phosphate; cited from earlier work
[6] = test system: B. methanolicus transketolase; conditions: ref. [2] Markert et al., cited from earlier work
[7] = molecular target: T1, Bacillus methanolicus PB1 GapN (NADP-dependent glyceraldehyde-3-phosphate dehydrogenase), cds 10662A (Bacillus methanolicus, UniProt I3E1I1); assay: GapN vs. GapA kinetic comparison: catalytic constants of BM PB1 GapN (cds 10662A, Table 18); type: biochemical; conditions: fixed NADP; G3P varied
T1 sequence (I3E1I1 1-481): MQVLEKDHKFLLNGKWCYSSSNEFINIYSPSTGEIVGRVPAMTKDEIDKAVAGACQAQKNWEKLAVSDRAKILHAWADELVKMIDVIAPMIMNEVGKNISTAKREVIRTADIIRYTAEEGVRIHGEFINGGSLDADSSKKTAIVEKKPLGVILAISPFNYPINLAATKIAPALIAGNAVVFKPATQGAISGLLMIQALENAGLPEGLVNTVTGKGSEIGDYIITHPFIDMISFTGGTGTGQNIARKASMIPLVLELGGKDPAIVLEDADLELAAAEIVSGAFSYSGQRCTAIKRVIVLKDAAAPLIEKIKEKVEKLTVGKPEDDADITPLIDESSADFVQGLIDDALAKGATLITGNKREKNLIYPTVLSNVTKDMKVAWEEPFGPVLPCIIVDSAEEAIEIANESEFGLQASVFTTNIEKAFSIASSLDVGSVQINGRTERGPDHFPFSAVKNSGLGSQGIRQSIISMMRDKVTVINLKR

[8] = molecular target: T2, Bacillus methanolicus MGA3 GapN (NADP-dependent glyceraldehyde-3-phosphate dehydrogenase), cds 10663A (Bacillus methanolicus, UniProt I3EBG2); assay: GapN vs. GapA kinetic comparison: catalytic constants of BM MGA3 GapN (cds 10663A, Table 18); type: biochemical; conditions: fixed NADP; G3P varied
T2 sequence (I3EBG2 1-481): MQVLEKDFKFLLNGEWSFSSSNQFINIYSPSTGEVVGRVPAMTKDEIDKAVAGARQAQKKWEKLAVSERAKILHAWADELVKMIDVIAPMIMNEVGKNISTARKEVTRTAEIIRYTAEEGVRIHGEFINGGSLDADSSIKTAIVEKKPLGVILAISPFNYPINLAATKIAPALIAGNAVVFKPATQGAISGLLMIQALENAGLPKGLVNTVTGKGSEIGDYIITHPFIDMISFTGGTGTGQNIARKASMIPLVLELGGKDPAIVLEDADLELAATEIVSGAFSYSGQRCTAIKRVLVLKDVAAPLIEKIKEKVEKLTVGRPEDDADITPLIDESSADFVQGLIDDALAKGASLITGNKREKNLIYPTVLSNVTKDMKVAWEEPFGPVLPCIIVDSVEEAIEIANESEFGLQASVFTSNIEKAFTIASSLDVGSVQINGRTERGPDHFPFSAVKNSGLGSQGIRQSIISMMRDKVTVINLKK

[9] = test system: E. coli fructose-6-phosphate aldolase (F6P aldolase, fsa), wild type; conditions: cited from earlier work; for Km: purified enzyme
[10] = fold reduction compared to wild type enzyme
[11] = reaction substrates, read-out: KM (substrates)
[12] = reaction products, read-out: KM (products)

In the case of `CC(=O)CO` [hydroxyacetone], the “reduced catalytic efficiency on hydroxyacetone” value [1, 10] is given as “more than 3 fold”.

In the case of `O=C(CO)[C@@H](O)[C@H](O)[C@H](O)[C@H](O)COP(=O)(O)O` [sedoheptulose 7-phosphate], the Km [2, 11] is listed as 4000 µM.

In the case of `C=O` [formaldehyde], the Km ([3]; read-out: Km for formaldehyde) is given as 1860 µM.

In the case of `O=P(O)(O)OC[C@H]1OC(O)[C@H](O)[C@@H]1O` (stereo partly shown) [ribose 5-phosphate], the Km [4] is listed as 4400 µM, the Km [5] is listed as 830 µM and the Km [2, 12] is listed as 1400 µM. For the same compound, the Km [6, 12] was 120 µM.

For `O=CCO` [glycoaldehyde], the “reduced affinity for glycoaldehyde” value [1, 10] is given as “more than 3 fold”.

For `O=C[C@H](O)COP(=O)(O)O` [glyceraldehyde 3-phosphate], the Km [7] was 1100 ± 300 µM, the “kcat (G3P)” value [7] was 8.9 ± 0.8 S^−1 and the Km [8] was 1600 ± 100 µM. The “kcat (G3P)” value [8] was 9.5 ± 0.8 S^−1, the Km [9] was 800 µM and the Km [2, 11] was 2100 µM. The Km [6, 11] was 920 µM.

In the case of `O=C(CO)CO` [dihydroxyacetone], the Km [9] is given as 35000 µM and the “improved reactivity towards DHA in terms of Kcat/Km” value ([1]; fold improvement) is given as “over 17 fold”.

For `O=P(O)(O)OC[C@H]1OC(O)(CO)[C@@H](O)[C@@H]1O` (stereo partly shown) [fructose 6-phosphate], the “Vmax for fructose 6-phosphate cleavage” value ([9]; 30 degrees C., pH 8.5, 50 mm glycylglycine buffer) is listed as 7 units/mg of protein, the Km [9] is listed as 9000 µM and the Km [2, 11] is listed as 1100 µM. For the same compound, the Km [6, 11] was 720 µM.

For `O=C[C@H](O)[C@H](O)COP(=O)(O)O`, the Km [2, 12] is given as 90 µM.

In the case of `O=C(CO)[C@@H](O)[C@H](O)COP(=O)(O)O` [xylulose 5-phosphate], the Km ([3]; read-out: Km for xylulose 5-phosphate) is listed as 33.3 µM, the Km [2, 12] is listed as 160 µM and the Km [6, 12] is listed as 150 µM.
